The values that follow come from patent US9187462B2, “Substituted quinazolines as serine/threonine kinase inhibitors” (Array BioPharma Inc., priority 2011, dated 2015).

The structures appear in SMILES notation.

Sequence of human ERK-2 (Mitogen Activated Kinase 1) (P28482 8-360): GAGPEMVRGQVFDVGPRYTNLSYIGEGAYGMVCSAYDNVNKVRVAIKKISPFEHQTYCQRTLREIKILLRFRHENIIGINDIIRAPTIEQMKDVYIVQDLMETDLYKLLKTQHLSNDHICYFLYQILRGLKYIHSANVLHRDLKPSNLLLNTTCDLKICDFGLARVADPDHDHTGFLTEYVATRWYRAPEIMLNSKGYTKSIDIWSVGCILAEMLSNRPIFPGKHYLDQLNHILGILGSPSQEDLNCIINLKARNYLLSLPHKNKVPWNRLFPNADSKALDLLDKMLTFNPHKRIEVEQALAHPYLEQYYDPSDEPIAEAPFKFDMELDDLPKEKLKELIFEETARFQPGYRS

For the first test, the target named is human ERK-2 (Mitogen Activated Kinase 1) (Homo sapiens (Human), UniProt P28482). In words: ERK-2 Enzymatic Assay. In kind it is biochemical. To be noted: 5 nM ERK-2 enzyme, 25 μM ATP, Omnia peptide S/T17; single assay or mean of multiple assays; read-out: IC50 (ERK-2 Enzymatic Assay), TABLE I. The method, then:
Compounds were tested in an enzymatic assay using human ERK-2 (Mitogen Activated Kinase 1), recombinantly expressed as an N-terminal 6-His fusion protein in E. coli and corresponding to aa 8-360. The substrate used was the fluorescent Omnia peptide S/T17 (Invitrogen of Carlsbad, Calif.; Cat. KNZ1171C). Test compounds were diluted in DMSO in 3-fold serial dilutions at 100× final concentrations. […] The assay was run at ambient temperature in a white 384-well polypropylene plate (Nunc, Inc of Naperville, Ill.; Cat. 267462) collecting data every 50 seconds for approximately 30 minutes on an Envision plate reader (PerkinElmer, Inc. of Waltham, Mass.); Excitation 340 nm/Emission 495 nm. The data collected from each well was fit to a straight line and the resulting rates were used to calculate percent of control. Percent of control was plotted against compound concentration and IC50 values were determined using a four-parameter fit. Representative data is in TABLE I and TABLE II. The reported IC50 may be from a single assay or the mean of multiple assays.
As to `CC(C)Nc1ncc2ccc(C(=O)N[C@H](c3ccc(C(F)(F)F)c(F)c3)[C@@H]3CCCN3)cc2n1` (stereo in doubt) [I-5, 2-isopropylamino-quinazoline-7-carboxylic acid [(S)-(3-fluoro-4-trifluoromethyl-phenyl)-(R)-pyrrolidin-2-yl-methyl]-amide], the IC50 (usually the concentration at which inhibition is half-maximal) was 2.3 nM.
For `O=C(N[C@H](c1ccc(Cl)c(F)c1)[C@@H]1CCCN1)c1ccc2cnc(NC3CCOCC3)nc2c1` (stereo in doubt) [I-23, 2-(tetrahydropyran-4-ylamino)-quinazoline-7-carboxylic acid [(S)-(4-chloro-3-fluoro-phenyl)-(R)-pyrrolidin-2-yl-methyl]-amide], the IC50 was 2.3 nM.
For `CCn1ccc([C@@H](NC(=O)c2ccc3cnc(NC4CCOCC4)nc3c2)c2ccc(Cl)c(F)c2)n1` [I-19, 2-(tetrahydropyran-4-ylamino)-quinazoline-7-carboxylic acid [(S)-(4-chloro-3-fluoro-phenyl)-(1-ethyl-1H-pyrazol-3-yl)-methyl]-amide], the IC50 worked out at 2.4 nM.
On the same count and under the same terms, for `C[C@@H](CO)Nc1ncc2ccc(C(=O)NC(c3ccc(Cl)c(F)c3)c3ccn(C)n3)cc2n1` (stereo partly drawn) [I-6, N-((4-chloro-3-fluorophenyl)(1-methyl-1H-pyrazol-3-yl)methyl)-2-((S)-1-hydroxypropan-2-ylamino)quinazoline-7-carboxamide] the value was 5 nM; for `COc1ccc([C@@H](NC(=O)c2ccc3cnc(NC4CCOCC4)nc3c2)[C@@H]2CCCN2)cc1F` (stereo in doubt) [I-24, 2-(tetrahydropyran-4-ylamino)-quinazoline-7-carboxylic acid [(S)-(3-fluoro-4-methoxy-phenyl)-(R)-pyrrolidin-2-yl-methyl]-amide], 8.2 nM; for `COc1ccc([C@@H](NC(=O)c2cc(F)c3cnc(NC4CCOCC4)nc3c2)[C@@H]2CCCN2)cc1F` (stereo in doubt) [I-25, 5-fluoro-2-(tetrahydropyran-4-ylamino)-quinazoline-7-carboxylic acid [(S)-(3-fluoro-4-methoxy-phenyl)-(R)-pyrrolidin-2-yl-methyl]-amide], 9 nM.
Still for that read-out and setting: to `O=C(N[C@H](c1ccc(C(F)(F)F)c(F)c1)[C@@H]1CCCN1)c1ccc2cnc(NC3CCOCC3)nc2c1` (stereo in doubt) [I-7, 2-(tetrahydropyran-4-ylamino)-quinazoline-7-carboxylic acid [(S)-(3-fluoro-4-trifluoromethyl-phenyl)-(R)-pyrrolidin-2-yl-methyl]-amide] belongs 1.8 nM.

Still in this test, the particulars now being: 5 nM ERK-2 enzyme, 25 μM ATP, Omnia peptide S/T17; single assay or mean of multiple assays; read-out: IC50 (ERK-2 Enzymatic Assay), TABLE II.
On to `COc1ccc([C@H](NC(=O)c2cc(F)c3cnc(NC(C)C(F)(F)F)nc3c2)c2cnn(C)c2)cc1F` (single isomer, unassigned) [II-1], for which the IC50 turned out to be 6.2 nM.
Same read-out and setting: to `COc1ccc([C@H](NC(=O)c2cc(F)c3cnc(NC(C)C(F)(F)F)nc3c2)c2cnn(C)c2)cc1F` (single isomer, unassigned) [II-2] belongs 13.6 nM.
